{"source": "patent US10682409B2", "about": "“Therapeutic treatment” (priority 2012, dated 2020)", "test": "Example 2 case study: child with ADHD on methylphenidate, then Periactin (height, weight, percentiles, attentiveness)", "type": "in vivo, human", "from_the_text": "Case study: A child was presented by their parents for symptoms of attention deficit hyperactivity disorder. Their size at evaluation was 4′1¾″ and 50 lbs, corresponding to the 81st and 50th percentiles when compared to girls their age. […] At three months following the initiation of treatment for ADHD, the child was 4′2⅞″ and 50½ lbs, corresponding to the 85th and 34rd percentiles when compared to girls their age. At one year, they were 4′4⅜″ and 53 lbs, corresponding to the 84th and 36th percentiles when compared to girls their age. At two years they were 4′5¾″ and 54 lbs, corresponding to the 72nd and 17th percentiles when compared to girls their age. At four years of treatment they were 4′7⅜″ and 59 lbs, corresponding to 70th and 14th percentiles when compared to girls their age. At five years of treatment they were 4′9⅞″ and 64½ lbs, corresponding to 59th and 7th percentiles when compared to girls their age.\nThe child was then prescribed Periactin at a dosage of 2 mg b.i.d. to attempt to stimulate appetite. The dose was taken in the morning and then in the afternoon. After one year they were 4′11½″ and 72½ lbs, corresponding to 33rd and 5th percentiles when compared to girls their age. The child was then prescribed Periactin at a dose of 4 mg b.i.d. After two months on this dose, they were 5′¼″ and 76 lbs, corresponding to 37th and 8th percentiles when compared to girls their age. At 8 months on this dose, they were 5′½″ and 80 lbs, corresponding to 41st and 8th percentiles when compared to girls their age. At one year on this dose, they were 5′2¾″ and 89½ lbs, corresponding to 51st and 17th percentiles when compared to girls their age. At 18 months on this dose, they were 5′3⅝″ and 99½ lbs, corresponding to 56th and 30th percentiles when compared to girls their age. Additionally, the attentiveness of the child increase following the prescription of Periactin as they increased their food intake during the day.", "key": {"[1]": {"conditions": "Periactin 2 mg b.i.d., after one year"}, "[2]": {"conditions": "Periactin 4 mg b.i.d., 8 months"}, "[3]": {"conditions": "Periactin 4 mg b.i.d., 18 months"}, "[4]": {"conditions": "Periactin 4 mg b.i.d., one year"}, "[5]": {"conditions": "Periactin 4 mg b.i.d., two months"}}}
{"smiles": "CN1CCC(=C2c3ccccc3C=Cc3ccccc32)CC1.Cl", "note": "[Periactin, 4-(5H-dibenzo[a,d]cyclohepten-5-ylidene)-1-methylpiperidine hydrochloride]", "values": [{"measurement": "height percentile compared to girls their age", "setting": "[1]", "result": 33, "unit": "percentile"}, {"measurement": "weight percentile compared to girls their age", "setting": "[1]", "result": 5, "unit": "percentile"}, {"measurement": "height percentile compared to girls their age", "setting": "[2]", "result": 41, "unit": "percentile"}, {"measurement": "weight", "setting": "[2]", "result": 80, "unit": "lbs"}, {"measurement": "weight percentile compared to girls their age", "setting": "[2]", "result": 8, "unit": "percentile"}, {"measurement": "height percentile compared to girls their age", "setting": "[3]", "result": 56, "unit": "percentile"}, {"measurement": "weight percentile compared to girls their age", "setting": "[3]", "result": 30, "unit": "percentile"}, {"measurement": "height percentile compared to girls their age", "setting": "[4]", "result": 51, "unit": "percentile"}, {"measurement": "weight percentile compared to girls their age", "setting": "[4]", "result": 17, "unit": "percentile"}, {"measurement": "height percentile compared to girls their age", "setting": "[5]", "result": 37, "unit": "percentile"}, {"measurement": "weight", "setting": "[5]", "result": 76, "unit": "lbs"}, {"measurement": "weight percentile compared to girls their age", "setting": "[5]", "result": 8, "unit": "percentile"}, {"measurement": "attentiveness", "setting": "following the prescription of Periactin", "result": "increase"}]}
